Seven molecules from PMC7156458, “Synthetic biology based construction of biological activity-related library of fungal decalin-containing diterpenoid pyrones” (Nature Communications, 2020) can be followed below.

In general, GI50 refers to the concentration giving 50% growth inhibition.

Holding throughout (experiment): cells
Parameters in all cases: species or system JFCR39 human cancer cell lines; JFCR39 panel growth inhibition, sulforhodamine B total protein after 48 h

Assay [1] relates to NCI-H460. As to conditions: Homo sapiens, NCI-H460, 48 h. As to the method: (§1) Supplementary Note 24. Antiproliferative effects across the panel of JFCR39 cancer cell lines A panel of 39 human cancer cell lines, termed JFCR39, were previously described13-16. Cells were grown in RPMI-1640 (FUJIFILM Wako Pure Chemical Corporation, Tokyo, Japan) supplemented with 1 µg mL-1 kanamycin and 5% (v/v) fetal bovine serum (Nichirei Biosciences Inc, Tokyo, Japan) and incubated at 37°C in a humidified atmosphere supplemented with 5% CO2. Drug efficacy was assessed as changes in total cellular protein after 48 hours of drug treatment using a sulforhodamine B assay. Assays were done in duplicate and the GI50 was calculated as described previously13,16. The antitumor profile across the JFCR39 panel, or fingerprints were then compared to reference database containing ~2000 compounds by COMPARE algorithm16,17. Initially, we evaluated new DDP analogues for their antiproliferative activities across the panel of 39 human cancer cell lines, JFCR39[50],[51].

The subject of assay [2] is NCI-H226. The conditions noted are these: Homo sapiens, NCI-H226, 48 h. The method, then: as §1
Assay [3] deals with HCC2998. The conditions noted are these: Homo sapiens, HCC 2998, 48 h. The method, then:
as §1

The subject of assay [4] is MKN-B. As to conditions: 48 h. As to the method: as §1
The test system of assay [5] is NCI-H522. As to conditions: Homo sapiens, NCI-H522, 48 h. The method, then:
as §1

Assay [6] deals with MKN-A. The conditions noted are these: 48 h. The method, then: as §1
Assay [7] has as its system HBC-5. As to conditions: HBC5, 48 h. The method, then: as §1
Assay [8] concerns MKN74. The conditions noted are these: Homo sapiens, MKN-74, 48 h. As to the method:
as §1

Assay [9] has as its system SF-295. The conditions noted are these: Homo sapiens, SF-295, 48 h. The method, then: as §1
The test system of assay [10] is MKN45. The conditions noted are these: Homo sapiens, MKN-45, 48 h. The method, then:
as §1

Assay [11] deals with SF-539. As to conditions: Homo sapiens, SF-539, 48 h. As to the method: as §1
Assay [12] deals with OVCAR-3. The conditions noted are these: Homo sapiens, OVCAR-3, 48 h. As to the method: as §1
The subject of assay [13] is DMS114. The conditions noted are these: Homo sapiens, DMS-114, 48 h. As to the method: as §1
The subject of assay [14] is HT-29. The conditions noted are these: Homo sapiens, HT-29, 48 h. As to the method:
as §1

Assay [15] relates to SNB-78. The conditions noted are these: Homo sapiens, SNB-78, 48 h. As to the method:
as §1

The subject of assay [16] is SNB-75. The conditions noted are these: Homo sapiens, SNB-75, 48 h. As to the method: as §1
Assay [17] relates to St-4. As to conditions: Homo sapiens, St-4, 48 h. The method, then:
as §1

The test system of assay [18] is U251. As to conditions: Homo sapiens, U-251, 48 h. The method, then:
as §1

Assay [19] deals with OVCAR-5. The conditions noted are these: Homo sapiens, OVCAR-5, 48 h. The method, then: as §1
The subject of assay [20] is HCT-116. The conditions noted are these: Homo sapiens, HCT-116, 48 h. As to the method:
as §1

Assay [21] concerns DU-145. As to conditions: Homo sapiens, DU-145, 48 h. As to the method: as §1

Consider `C=C1CC[C@@H]2[C@](C)(CC[C@H]3O[C@H](C=C(C)C)C[C@@]23C)[C@@H]1Cc1c(OC)oc(C)c(C)c1=O` [Compound 22, O-methylated higginsianin A], for which the 50% growth inhibitory concentration (GI50) in assay [1] was 80.7 nM; in assay [2] it was 3.79 µM; in assay [3] it was 8.85 µM; in assay [4], 0.54 µM; in assay [5], 478 nM; in [6], 211 nM. For the same molecule, the GI50 in [7] is 7.06 µM; in [8], 3.33 µM; in assay [9], 2.45 µM; in assay [10], 10.4 µM; in [11] it was 10.5 µM; in assay [12], 2.34 µM. Besides, the GI50 in assay [13] is 60.1 nM; in [14], 7.66 µM; in assay [15], 9.75 µM; in [16], 10 µM; in [17], 11 µM; in [18], 11.6 µM. Besides, the GI50 in assay [19] was 13.4 µM; in assay [20], 1.78 µM.

`C=C1CCC2C(C)(CCC=C(C)C)C(O)CCC2(C)C1Cc1c(OC)oc(CO)c(C(=O)OC)c1=O` (stereo not drawn) [Compound 13]: the GI50 in assay [1] was 11200 nM; in assay [2], 16.9 µM; in [3], 17.7 µM; in [4] it was 15.7 µM; in [5], 6850 nM; in assay [7], 15.1 µM. Further, the GI50 was 14.8 µM in assay [8]; 11.9 µM in assay [9]; 16.7 µM in assay [10]; 15.2 µM in assay [21]; 19.4 µM in assay [11]; 10.8 µM in assay [12]. For the same molecule, the concentration for 50% growth inhibition (GI50) in assay [13] is 5890 nM; in assay [14], 17.9 µM; in assay [15], 17.3 µM; in assay [16] it was 18.8 µM; in assay [17], 21.9 µM; in assay [18], 19.9 µM. Moreover, the 50% growth inhibitory concentration (GI50) in [19] is 17.3 µM; in [20], 18.4 µM.

As for `C=C1CCC2C(C)(CC(=O)C=C(C)C)C(O)CCC2(C)C1Cc1c(O)c(C)c(C)oc1=O` (stereo not drawn) [Compound 7], the concentration for 50% growth inhibition (GI50) in assay [1] is 11600 nM; in assay [2] it was 33.4 µM; in assay [4] it was 37.7 µM; in assay [6], 20500 nM; in [7], 32.5 µM; in assay [9], 25.4 µM. The concentration for 50% growth inhibition (GI50) in assay [11] is 61.4 µM; in [12], 20.6 µM; in [17] it was 69.2 µM; in assay [18], 95.5 µM; in assay [20], 37.3 µM.

For `C=C1CC[C@@H]2[C@](C)(CC[C@H]3O[C@H](C=C(C)C)C[C@@]23C)[C@@H]1Cc1c(OC)oc(CO)c(C)c1=O` [Compound 20], the GI50 was 81.1 nM in [1]; 13.6 µM in assay [2]; 15.9 µM in assay [3]; 1.06 µM in [4]; 98.6 nM in [6]; 12.4 µM in assay [7]. The GI50 in assay [8] was 12.9 µM; in [9], 11.2 µM; in assay [10] it was 14.5 µM; in [21], 12.7 µM; in assay [11], 12.3 µM; in assay [12] it was 3.81 µM. The concentration for 50% growth inhibition (GI50) is 47.6 nM in assay [13]; 14.6 µM in [14]; 14 µM in assay [15]; 16.4 µM in assay [16]; 14.3 µM in [17]; 13.8 µM in assay [18]. Further, the figures for the concentration for 50% growth inhibition (GI50) in [19] and in assay [20] were 16.4 µM and 10.4 µM, respectively.

On to `C=C1CCC2C(C)(CCC=C(C)C)C(O)CCC2(C)C1Cc1c(OC)oc(C)c(C)c1=O` (stereo not drawn) [Compound 11], for which the GI50 in assay [1] was 86.5 nM; in [2], 18.2 µM; in assay [3], 36.7 µM; in [4] it was 3.7 µM; in [5] it was 1950 nM; in [6] it was 308 nM. Also, the GI50 in [7] is 13.9 µM; in assay [8], 4.76 µM; in assay [10] it was 18.6 µM; in assay [21] it was 16.5 µM; in assay [12], 3.61 µM; in assay [13], 56.5 nM. Also, the GI50 in assay [14] is 13.6 µM; in assay [15], 21.9 µM; in assay [16], 27.8 µM; in assay [17], 24.9 µM; in [18], 22.8 µM; in assay [19], 42.4 µM. The molecule also gave a concentration for 50% growth inhibition (GI50) in assay [20] of 0.736 µM.

With `C=C1CCC2C(C)(CC(=O)C=C(C)C)C(O)CCC2(C)C1Cc1c(OC)oc(CO)c(C)c1=O` (stereo not drawn) [Compound 19], the 50% growth inhibitory concentration (GI50) in [1] is 6000 nM; in [2], 19.1 µM; in assay [4], 15.2 µM; in assay [5], 12400 nM; in assay [6] it was 9570 nM; in [7], 31.6 µM. For the same molecule, the 50% growth inhibitory concentration (GI50) in assay [8] is 31 µM; in assay [9] it was 17.2 µM; in assay [10], 77.1 µM; in assay [21], 42.9 µM; in [11], 65.8 µM; in [12], 18.4 µM. Moreover, the 50% growth inhibitory concentration (GI50) is 6520 nM in [13]; 46 µM in assay [14]; 36.2 µM in assay [15]; 53.8 µM in assay [16]; 75.3 µM in [17]; 69.7 µM in assay [18]. Further, the GI50 in [20] is 22.8 µM.

For the molecule `C=C1CCC2C(C)(CCC=C(C)C)C(O)CCC2(C)C1Cc1c(OC)oc(C)c(C(=O)OC)c1=O` (stereo not drawn) [Compound 14], the GI50 in assay [1] is 73.5 nM; in assay [2] it was 11.7 µM; in assay [3] it was 16.7 µM; in assay [4], 2.01 µM; in assay [5], 1540 nM; in assay [7], 12.1 µM. The GI50 was 10.8 µM in [8]; 11.5 µM in assay [9]; 13 µM in assay [10]; 11.8 µM in assay [21]; 12.4 µM in assay [11]; 10.3 µM in assay [12]. The GI50 in [13] was 94.2 nM; in assay [14] it was 13.2 µM; in assay [15], 14.7 µM; in assay [16], 20.1 µM; in assay [17], 14.6 µM; in assay [18] it was 15 µM. Besides, the 50% growth inhibitory concentration (GI50) in assay [19] was 18.6 µM; in assay [20], 2.83 µM.
